Measurements from US20250326769A1, “HETEROAROMATIC MACROCYCLIC ETHER CHEMOTHERAPEUTIC AGENTS” (Nuvalent, Inc., priority 2022, published 2025).
Where two headings read alike, the source gives them in different places.

What was measured:
ALK I1171N/D1203N = ALK I1171N/D1203N (Homo sapiens (Human), UniProt Q9UM73, D1203N/I1171N); assay: Biochemical kinase assay, ALK I1171N/D1203N; conditions: apparent inhibitory constant, kinase domain, Morrison equation; read-out: ALK-I1171N-D1203N Ki^app
Method: (§1) First, 250 nL of compound dissolved in DMSO (100-fold of the desired concentration) was dispensed into a 384-well plate. A 12.5 μL substrate solution containing ATP (2 mM) and fluorogenic phosphorylation substrate AQT0101 ([…] for ALK and ROS, AssayQuant) or AQT0104 (26 μM for TRKB, AssayQuant) in buffer (50 mM HEPES pH 7.5, […], 0.5 mM EGTA, 10 mM MgCl2) was added and mixed thoroughly. Then, a 12.5 μL kinase solution containing ALK (1.5 nM, Carna, 08-518), ALK I1171N/D1203N (4 nM, SignalChem, custom-made), ROS1 (0.6 nM, Carma, 08-163), ROS1-G2032R (0.5 nM, SignalChem, R14-121BG), or TRKB-wt (1.5 nM, SignalChem, N17-11G) kinase domains in buffer ([…] pH 7.5, 0.01% Brij-[…], 0.4 mg/mL BSA, 0.5 mM EGTA, and 10 mM MgCl2) was added and mixed thoroughly. The plate was sealed and read by SpectraMax Paradigm at λ=485 nm every 2 minutes for 120 minutes at 30° C. Initial rates of reaction (v) were calculated from the change in fluorescence intensity over time during the initial, linear portion of the reaction. Finally, apparent inhibitory constants (Ki^app) were determined from regression of v and I (inhibitor concentration) to Morrison Equation (E=enzyme concentration): […]
(§2) Compound potency can be interpreted by binning Ki^app values against the targets: bin A for high potency, Ki^app<50 nM; bin B for medium potency, 50 nM≤Ki^app<500 nM; and bin C for low potency, Ki^app≥500 nM. […] “nd” means not determined.

TRKB-wt = TRKB-wt (Homo sapiens (Human), UniProt Q16620); assay: Biochemical kinase assay, TRKB-wt; conditions: apparent inhibitory constant, kinase domain, Morrison equation; read-out: TRKB-wt Ki^app
Summary of the method: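 Kinase domains (in enzyme solution: ALK I1171N/D1203N 4 nM, ROS1 0.6 nM, ROS1-G2032R 0.5 nM, TRKB 1.5 nM) were mixed with substrate solution holding 2 mM ATP and 26 μM AQT0101 (ALK, ROS1) or AQT0104 (TRKB). Initial rates from 120-min fluorescence kinetics at 30 °C were fitted to the Morrison equation (Ki^app).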

Ba/F3 EML4-ALK v1 I1171N = Ba/F3 EML4-ALK v1 I1171N (Homo sapiens (Human), UniProt Q9HC35+Q9UM73, I1171N); assay: Ba/F3 cell proliferation assay, EML4-ALK v1 I1171N; assay type: cell-based; conditions: for IC50: Ba/F3 stable cells, 72 hours, CellTiter-Glo; for ETV6-TRKB / EML4-ALK v1 I1171N: TRKB selectivity, ratio of Ba/F3 IC50 values
Summary of the method: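 Ba/F3 cells stably transformed with retroviral EML4-ALK v1 I1171N, selected by IL-3 withdrawal and puromycin, grown IL-3-free. Compounds added as 3-fold dilution series, 72 h incubation; viability by CellTiter-Glo luminescence. IC50 from percent inhibition by four-parameter logistic fit, binned A/B/C.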

Ba/F3 ETV6-TRKB = Ba/F3 ETV6-TRKB (Homo sapiens, UniProt Q16620); assay: Ba/F3 cell proliferation assay, ETV6-TRKB; assay type: cell-based
Summary of the method: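 Ba/F3 cells retrovirally transduced with ETV6-TRKB and selected for IL-3-independent growth with puromycin were treated with 3-fold compound dilutions for 72 h. Viability read by CellTiter-Glo luminescence; IC50 from percent inhibition by four-parameter logistic fit.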

[1] = target: Ba/F3 EML4-ALK v1 I1171N/D1203N (Homo sapiens (Human), UniProt Q9HC35+Q9UM73, D1203N/I1171N); assay: Ba/F3 cell proliferation assay, EML4-ALK v1 I1171N/D1203N; assay type: cell-based; conditions: for IC50: Ba/F3 stable cells, 72 hours, CellTiter-Glo; for ETV6-TRKB / EML4-ALK v1 I1171N/D1203N: TRKB selectivity, ratio of Ba/F3 IC50 values
Summary of the method: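 Ba/F3 cells made IL-3-independent by retroviral EML4-ALK v1 I1171N/D1203N and selected with puromycin, then treated with 3-fold compound dilutions for 72 h. Viability by CellTiter-Glo luminescence; IC50 from four-parameter logistic fit.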

ROS1-G2032R = ROS1-G2032R (Homo sapiens (Human), UniProt P08922, G2032R); assay: Biochemical kinase assay, ROS1-G2032R; conditions: apparent inhibitory constant, kinase domain, Morrison equation; read-out: ROS1-G2032R Ki^app
Method: as §1, §2

ROS1 = ROS1 (Homo sapiens (Human), UniProt P08922); assay: Biochemical kinase assay, ROS1-wt; conditions: apparent inhibitory constant, kinase domain, Morrison equation; read-out: ROS1-wt Ki^app
Method: as §1, §2

[2] = Ba/F3 stable cells, 72 hours, CellTiter-Glo; read-out: ETV6-TRKB IC50

Sequence of Ba/F3 EML4-ALK v1 I1171N/D1203N (Q9UM73 other isoform, or with tags, fused parts or gaps I1171N/D1203N): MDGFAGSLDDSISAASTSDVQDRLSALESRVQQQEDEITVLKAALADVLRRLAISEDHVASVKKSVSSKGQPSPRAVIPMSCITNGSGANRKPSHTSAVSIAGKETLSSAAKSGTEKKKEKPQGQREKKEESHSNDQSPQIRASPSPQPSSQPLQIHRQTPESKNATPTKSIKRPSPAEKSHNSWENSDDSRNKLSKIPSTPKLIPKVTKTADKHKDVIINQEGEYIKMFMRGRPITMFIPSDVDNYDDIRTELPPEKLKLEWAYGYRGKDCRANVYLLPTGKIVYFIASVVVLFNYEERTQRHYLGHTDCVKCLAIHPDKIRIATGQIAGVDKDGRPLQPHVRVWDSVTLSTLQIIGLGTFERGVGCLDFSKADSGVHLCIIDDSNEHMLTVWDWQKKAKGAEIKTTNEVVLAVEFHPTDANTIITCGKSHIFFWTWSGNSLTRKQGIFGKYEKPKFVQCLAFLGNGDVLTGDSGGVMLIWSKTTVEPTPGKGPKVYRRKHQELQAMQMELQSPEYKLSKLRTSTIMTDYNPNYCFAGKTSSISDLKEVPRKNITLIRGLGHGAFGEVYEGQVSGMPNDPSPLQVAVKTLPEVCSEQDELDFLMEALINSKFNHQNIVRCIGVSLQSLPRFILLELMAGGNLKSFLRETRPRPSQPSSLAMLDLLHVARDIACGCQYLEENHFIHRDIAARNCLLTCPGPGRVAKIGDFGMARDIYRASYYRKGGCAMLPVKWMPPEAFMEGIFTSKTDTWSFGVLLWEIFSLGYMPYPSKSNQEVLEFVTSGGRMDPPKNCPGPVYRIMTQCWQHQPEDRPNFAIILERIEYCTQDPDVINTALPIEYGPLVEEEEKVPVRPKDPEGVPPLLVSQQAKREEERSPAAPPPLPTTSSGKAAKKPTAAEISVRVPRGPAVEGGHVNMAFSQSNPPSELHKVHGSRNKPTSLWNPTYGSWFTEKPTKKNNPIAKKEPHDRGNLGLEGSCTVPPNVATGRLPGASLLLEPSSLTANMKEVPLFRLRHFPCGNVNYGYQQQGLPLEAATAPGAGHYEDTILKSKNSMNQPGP
Sequence of ALK I1171N/D1203N (Q9UM73 1116-1392 I1171N/D1203N): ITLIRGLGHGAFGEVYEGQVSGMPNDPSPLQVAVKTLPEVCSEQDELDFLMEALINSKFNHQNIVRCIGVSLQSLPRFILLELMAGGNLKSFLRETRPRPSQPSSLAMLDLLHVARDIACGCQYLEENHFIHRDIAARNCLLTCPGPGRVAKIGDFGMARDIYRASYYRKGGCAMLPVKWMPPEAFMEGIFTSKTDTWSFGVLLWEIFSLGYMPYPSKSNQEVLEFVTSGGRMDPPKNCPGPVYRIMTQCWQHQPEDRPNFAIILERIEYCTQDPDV
Sequence of Ba/F3 ETV6-TRKB (Q16620 32-822 limits assumed, change not shown): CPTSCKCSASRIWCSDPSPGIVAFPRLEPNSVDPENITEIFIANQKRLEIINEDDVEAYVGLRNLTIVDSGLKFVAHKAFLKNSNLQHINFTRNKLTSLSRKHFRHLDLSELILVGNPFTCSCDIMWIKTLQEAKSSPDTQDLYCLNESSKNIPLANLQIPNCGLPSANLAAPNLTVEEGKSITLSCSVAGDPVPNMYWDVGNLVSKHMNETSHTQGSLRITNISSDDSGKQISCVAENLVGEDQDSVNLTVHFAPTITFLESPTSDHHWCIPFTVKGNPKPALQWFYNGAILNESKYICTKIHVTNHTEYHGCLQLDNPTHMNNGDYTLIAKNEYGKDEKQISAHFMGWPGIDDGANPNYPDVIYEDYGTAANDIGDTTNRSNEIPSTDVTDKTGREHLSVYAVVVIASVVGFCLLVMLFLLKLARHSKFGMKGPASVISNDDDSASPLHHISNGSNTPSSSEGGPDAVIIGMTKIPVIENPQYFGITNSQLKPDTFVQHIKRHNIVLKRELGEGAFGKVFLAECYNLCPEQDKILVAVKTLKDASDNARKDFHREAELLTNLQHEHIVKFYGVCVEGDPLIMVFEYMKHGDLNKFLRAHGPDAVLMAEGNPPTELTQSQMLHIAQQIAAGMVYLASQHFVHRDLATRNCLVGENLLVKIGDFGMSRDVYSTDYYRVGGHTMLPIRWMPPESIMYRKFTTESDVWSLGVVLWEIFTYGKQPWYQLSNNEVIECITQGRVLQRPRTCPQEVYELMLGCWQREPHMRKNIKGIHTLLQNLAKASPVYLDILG
Sequence of TRKB-wt (Q16620 538-807): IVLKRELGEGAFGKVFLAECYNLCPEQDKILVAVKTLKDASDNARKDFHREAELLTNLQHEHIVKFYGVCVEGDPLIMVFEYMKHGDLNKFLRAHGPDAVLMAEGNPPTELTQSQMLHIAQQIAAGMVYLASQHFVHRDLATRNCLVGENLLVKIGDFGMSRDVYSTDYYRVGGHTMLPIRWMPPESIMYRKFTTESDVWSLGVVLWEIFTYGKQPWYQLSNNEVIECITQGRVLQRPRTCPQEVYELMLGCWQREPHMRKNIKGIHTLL
Sequence of Ba/F3 EML4-ALK v1 I1171N (Q9UM73 other isoform, or with tags, fused parts or gaps I1171N): as the sequence (Q9UM73 other isoform, or with tags, fused parts or gaps I1171N/D1203N) above, with N642D counted along it
Sequence of ROS1 (P08922 1945-2222): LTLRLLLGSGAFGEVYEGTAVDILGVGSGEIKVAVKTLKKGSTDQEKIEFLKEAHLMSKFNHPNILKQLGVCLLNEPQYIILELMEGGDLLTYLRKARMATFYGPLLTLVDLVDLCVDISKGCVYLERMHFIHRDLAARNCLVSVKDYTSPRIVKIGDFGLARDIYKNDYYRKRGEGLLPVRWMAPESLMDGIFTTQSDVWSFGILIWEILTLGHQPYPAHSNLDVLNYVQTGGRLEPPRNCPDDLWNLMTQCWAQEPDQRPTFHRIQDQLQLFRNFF
Sequence of ROS1-G2032R (P08922 1945-2222 G2032R): as the sequence (P08922 1945-2222) above, with G88R counted along it

Row | SMILES | Ki (ALK I1171N/D1203N) [µM] | Ki (TRKB-wt) [µM] | IC50 (Ba/F3 EML4-ALK v1 I1171N) [µM] | ETV6-TRKB / EML4-ALK v1 I1171N (Ba/F3 EML4-ALK v1 I1171N) | IC50 (Ba/F3 ETV6-TRKB; [2]) [µM] | IC50 [1] [µM] | ETV6-TRKB / EML4-ALK v1 I1171N/D1203N [1] | IC50 (Ba/F3 ETV6-TRKB; read-out: ETV6-TRKB IC50; Ba/F3 stable cells, 72 hours, CellTiter-Glo) [µM] | Ki (ROS1-G2032R) [µM] | Ki (ROS1) [µM]
1 | Cc1ocnc1-c1nn(CC2CC2)c2c1Cc1cccnc1-c1ccc(F)cc1[C@@H](C)Oc1cc-2cnc1N [Example 3, (20R)-3-(cyclopropylmethyl)-17-fluoro-20-methyl-5-(5-methyl-1,3-oxazol-4-yl)-21-oxa-3,4,12,24-tetraazapentacyclo[20.3.1.0^2,^6.0^8,^13.0^14,^19]hexacosa-1(25),2(6),4,8(13),9,11,14,16,18,22(26),23-undecaen-23-amine] | < 0.05 | 0.05 to 0.5 | 0.0001 to 0.05 | A (bin A for very high selectivity, ratio≥30-fold) | > 0.5 | 0.0001 to 0.05 | B (bin B for high selectivity, ratio≥10-fold but<30) | – | – | –
2 | CCn1nc(C(N)=O)c2c1-c1cnc(N)c(c1)O[C@H](C)c1cc(F)ccc1-c1nn(C)cc1C2 [Example 5, (R)-22-amino-3-ethyl-16-fluoro-10-methyl-19-methyl-20-oxa-3,4,10,11,23-pentaazapentacyclo[19.3.1.0^2,6.0^8,12.0^13,18]pentacosa-1(24),2(6),4,8,11.13,15,17,21(25),22-decaene-5-carboxamide] | < 0.05 | < 0.05 | 0.0001 to 0.05 | C (bin C for moderate selectivity, ratio≥1 but<10) | 0.05 to 0.5 | 0.05 to 0.5 | D (bin D for low selectivity, ratio<1) | – | – | –
3 | C[C@H]1Oc2cc(cnc2N)-c2c(c(C(=O)N(C)C)nn2CC2CC2)Cc2cccnc2-c2ccc(F)cc21 [Example 10, N,N-dimethyl-(R)-23-amino-3-(cyclopropylmethyl)-17-fluoro-20-methyl-21-oxa-3,4,12,24-tetraazapentacyclo[20.3.1.0^2,^6.0^8,^13.0^14,^19]hexacosa-1(25),2(6),4,8(13),9,11,14,16,18,22(26),23-undecaene-5-carboxamide] | < 0.05 | 0.05 to 0.5 | 0.0001 to 0.05 | A (bin A for very high selectivity, ratio≥30-fold) | > 0.5 | 0.0001 to 0.05 | A (bin A for very high selectivity, ratio≥30-fold) | – | – | –
4 | C[C@H]1Oc2cc(cnc2N)-c2c(CC3CC3)nn(C(=O)N(C)C)c2Cc2cccnc2-c2ccc(F)cc21 [Example 20, (R)-5-(N,N-dimethylcarbamoyl)-3-(cyclopropylmethyl)-17-fluoro-20-methyl-21-oxa-4,5,12,24-tetraazapentacyclo[20.3.1.0^2,^6.0^8,^13.0^14,^19]hexacosa-1(25),2(6),3,8(13),9,11,14,16,18,22(26),23-undecaen-23-ylamine] | < 0.05 | 0.05 to 0.5 | 0.0001 to 0.05 | A (bin A for very high selectivity, ratio≥30-fold) | – | 0.0001 to 0.05 | A (bin A for very high selectivity, ratio≥30-fold) | 0.05 to 0.5 | – | –
5 | C[C@H]1Oc2cc(cnc2N)-c2c(c(C(=O)N(C)C)nn2CC2CC2)Cc2cn(C)nc2-c2c(F)cc(F)cc21 [Example 32, N,N-dimethyl-(R)-22-amino-3-(cyclopropylmethyl)-14,16-difluoro-10-methyl-19-methyl-20-oxa-3,4,10,11,23-pentaazapentacyclo[19.3.1.0^2,^6.0^8,^12.0^13,^18]pentacosa-1(24),2(6),4,8,11,13,15,17,21(25),22-decaene-5-carboxamide] | < 0.05 | ≥ 0.5 | 0.0001 to 0.05 | A (bin A for very high selectivity, ratio≥30-fold) | > 0.5 | 0.0001 to 0.05 | A (bin A for very high selectivity, ratio≥30-fold) | – | – | –
6 | C[C@H]1Oc2cc(cnc2N)-c2c(c(C(=O)N(C)C)nn2C2CCC2)Cc2cn(C)nc2-c2ccc(F)cc21 [Example 35, N,N-dimethyl-(R)-22-amino-3-cyclobutyl-16-fluoro-10-methyl-19-methyl-20-oxa-3,4,10,11,23-pentaazapentacyclo[19.3.1.0^2,^6.0^8,^12.0^13,^18]pentacosa-1(24),2(6),4,8,11,13,15,17,21(25),22-decaene-5-carboxamide] | < 0.05 | 0.05 to 0.5 | 0.0001 to 0.05 | A (bin A for very high selectivity, ratio≥30-fold) | > 0.5 | 0.0001 to 0.05 | A (bin A for very high selectivity, ratio≥30-fold) | – | – | –
7 | C[C@H]1Oc2cc(cnc2N)-c2c(c(C(=O)N(C)C)nn2CC2CC2)Cc2cccnc2-c2c(F)cc(F)cc21 [Example 45, N,N-dimethyl-(R)-23-amino-3-(cyclopropylmethyl)-15,17-difluoro-20-methyl-21-oxa-3,4,12,24-tetraazapentacyclo[20.3.1.0^2,^6.0^8,^13.0^14,^19]hexacosa-1(25),2(6),4,8(13),9,11,14,16, 18,22(26),23-undecaene-5-carboxamide] | < 0.05 | ≥ 0.5 | 0.05 to 0.5 | B (bin B for high selectivity, ratio≥10-fold but<30) | > 0.5 | 0.0001 to 0.05 | A (bin A for very high selectivity, ratio≥30-fold) | – | – | –
8 | CSc1nn(CC2CC2)c2c1Cc1cn(C)nc1-c1ccc(F)cc1[C@@H](C)Oc1cc-2cnc1N [Example 56, (R)-3-(cyclopropylmethyl)-16-fluoro-10-methyl-19-methyl-5-(methylthio)-20-oxa-3,4,10,11,23-pentaazapentacyclo[19.3.1.0^2,^6.0^8,^12.0^13,^18]pentacosa-1(25),2(6),4,8,11,13,15,17,21,23-decaen-22-ylamine] | 0.05 to 0.5 | ≥ 0.5 | – | – | > 0.5 | 0.05 to 0.5 | C (bin C for moderate selectivity, ratio≥1 but<10) | – | – | –
9 | C[C@H]1Oc2cc(cnc2N)-c2c(c(C#N)nn2CC2CC2)Cc2cccnc2-c2ccc(F)cc21 [Example 66, (R)-23-amino-3-(cyclopropylmethyl)-17-fluoro-20-methyl-21-oxa-3,4,12,24-tetraazapentacyclo[20.3.1.0^2,^6.0^8,^13.0^14,^19]hexacosa-1(25),2(6),4,8(13),9,11,14,16,18,22(26),23-undecaene-5-carbonitrile] | – | – | 0.05 to 0.5 | – | – | > 0.5 | – | – | < 0.05 | < 0.05
